Experimental data from PMC8508710, “Biochemical Characterization of 13-Lipoxygenases of Arabidopsis thaliana” (International Journal of Molecular Sciences, 2021).

Key:
Set-up in all cases: made in house; host or cells: E. coli Nico21(DE3), pET15b
LOX4 [1] = biological target: T1, LOX4 (Arabidopsis thaliana, UniProt Q9FNX8); assay: Intrinsic fluorescence of LOX4; type: binding; conditions: 156 µM chemical; λExc = 280 nm; control 98.1 ± 3.9
T1 sequence (Q9FNX8 71-926): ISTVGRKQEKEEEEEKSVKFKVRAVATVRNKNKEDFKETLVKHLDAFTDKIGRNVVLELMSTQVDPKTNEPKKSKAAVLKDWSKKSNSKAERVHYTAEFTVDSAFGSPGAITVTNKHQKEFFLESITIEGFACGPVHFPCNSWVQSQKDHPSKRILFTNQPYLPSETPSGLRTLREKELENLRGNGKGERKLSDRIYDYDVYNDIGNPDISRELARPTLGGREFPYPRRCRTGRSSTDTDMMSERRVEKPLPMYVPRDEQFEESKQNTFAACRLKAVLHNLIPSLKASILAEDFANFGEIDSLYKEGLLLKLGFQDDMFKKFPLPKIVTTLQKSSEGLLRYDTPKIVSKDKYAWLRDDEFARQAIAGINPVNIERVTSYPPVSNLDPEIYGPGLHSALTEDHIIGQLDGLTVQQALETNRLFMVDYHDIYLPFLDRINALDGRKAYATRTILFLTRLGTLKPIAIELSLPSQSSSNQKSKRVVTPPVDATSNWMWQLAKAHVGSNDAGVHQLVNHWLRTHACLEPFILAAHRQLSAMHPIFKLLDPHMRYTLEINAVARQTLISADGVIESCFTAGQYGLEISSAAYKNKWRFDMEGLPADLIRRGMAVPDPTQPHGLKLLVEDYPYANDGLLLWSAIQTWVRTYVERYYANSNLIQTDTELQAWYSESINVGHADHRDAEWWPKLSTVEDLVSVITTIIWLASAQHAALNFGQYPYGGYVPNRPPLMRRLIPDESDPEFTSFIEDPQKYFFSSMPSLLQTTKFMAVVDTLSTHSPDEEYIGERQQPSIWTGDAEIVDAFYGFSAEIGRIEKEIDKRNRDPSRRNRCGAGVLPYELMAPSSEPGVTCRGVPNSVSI
Description: (§1) Figure 5 Analysis of the interaction of 12-OPDA and MJ with LOX4. […] LOX4 (0.22 µg/µL) was incubated with compounds at indicated concentrations for 10 min at 30 °C, and residual LOX activity was measured spectrophotometrically by the injection of 3 µL incubation mixture into 123 µL LeA (4.8 µM in 50 mM Tris-HCl, pH 7.2). […] (B) Intrinsic fluorescence of LOX4 incubated with 12-OPDA, MJ and solvent (control). Here, 120 µL LOX4 (0.2 µg/µL) was mixed with 15 µL chemical (1.4 mM in 50 mM K-Pi, pH 8.0) or solvent (control) and analyzed for intrinsic fluorescence emission after excitation at λExc = 280 nm. Mean graphs are shown (n = 4).

LOX4 [2] = biological target: T1, LOX4; assay: Free thiols of LOX4 (Ellman, DTNB); conditions: LOX4 4.2 µM incubated 20 min with 12-OPDA; control 7.6 ± 0.1
Description: The iron content was analyzed as described. Free protein thiols were determined as described in [80] with slight variations. Briefly, 150 µL LOX4 (4.2 µM) was mixed with 1.5 µL 30 mM 12-OPDA (in EtOH) or EtOH (solvent control). After 20 min of incubation at 25 °C, samples were mixed with 10 µL dithionitrobencene (DTNB, 2 mM in 40 mM K-Pi, pH 8.0) and incubated for 30 min in the dark. Samples were measured at 412 nm, ε412nm = 13,600 […] (KC4 microplate reader, Biotec, 25 °C) for determination of the thiol/protein ratio with background correction (150 µL 40 mM K-Pi, pH 8.0, 10 µL DTNB 2 mM, 1.5 µL ligand stock or EtOH).

LOX3 = biological target: T2, LOX3 (Arabidopsis thaliana, UniProt Q9LNR3); assay: Intrinsic fluorescence of LOX3; type: binding; conditions: as Figure 5B; for Emission maximum: control 330.8±1.6, in nm (unit assumed); for Relative fluorescence intensity at emission maximum: λExc = 280 nm, control 134.5±3.9
T2 sequence (Q9LNR3 71-919): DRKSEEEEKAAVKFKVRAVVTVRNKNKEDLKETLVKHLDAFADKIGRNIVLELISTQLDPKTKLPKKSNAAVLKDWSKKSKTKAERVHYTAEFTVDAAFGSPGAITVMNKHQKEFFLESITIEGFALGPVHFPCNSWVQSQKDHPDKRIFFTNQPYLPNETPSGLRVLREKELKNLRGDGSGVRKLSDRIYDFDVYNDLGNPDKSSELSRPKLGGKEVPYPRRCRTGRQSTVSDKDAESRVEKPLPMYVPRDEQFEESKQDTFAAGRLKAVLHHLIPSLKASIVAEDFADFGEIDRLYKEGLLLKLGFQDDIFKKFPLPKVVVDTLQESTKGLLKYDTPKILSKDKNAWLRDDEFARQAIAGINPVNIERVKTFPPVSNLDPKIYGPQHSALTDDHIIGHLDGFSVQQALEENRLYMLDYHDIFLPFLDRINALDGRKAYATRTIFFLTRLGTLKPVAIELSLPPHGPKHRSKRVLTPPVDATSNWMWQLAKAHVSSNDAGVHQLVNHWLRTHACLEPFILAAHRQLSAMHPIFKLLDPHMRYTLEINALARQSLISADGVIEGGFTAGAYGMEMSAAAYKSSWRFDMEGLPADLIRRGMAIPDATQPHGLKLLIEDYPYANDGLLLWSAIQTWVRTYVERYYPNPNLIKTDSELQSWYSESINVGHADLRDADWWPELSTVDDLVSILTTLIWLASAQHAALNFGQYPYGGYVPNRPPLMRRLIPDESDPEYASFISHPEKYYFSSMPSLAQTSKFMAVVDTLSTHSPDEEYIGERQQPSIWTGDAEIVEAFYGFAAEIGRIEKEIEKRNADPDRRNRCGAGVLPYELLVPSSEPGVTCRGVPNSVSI
Description: as §1
Int. J. Mol. Sci. 2021, 22, x FOR PEER REVIEW 11 of 17
Figure S7. Interaction and activity studies of LOX2, LOX3 and LOX6. (A) LOX2, LOX3 and LOX6 activities in presence of increasing amounts of MJ and 12-OPDA. Analysis was performed as described for IC50 determination of LOX4 (see Figure 5A). 100% activity […]
(B) Intrinsic fluorescence of LOX2 and LOX3 incubated with 12-OPDA, MJ and solvent control. Analysis was performed as in Figure 5B. […]

Row | SMILES | Relative fluorescence emission at 333 nm (LOX4 [1]) | Free thiols (Cys residues) of LOX4 after incubation (LOX4 [2]) [mol·mol^−1] | Emission maximum (LOX3) | Relative fluorescence intensity at emission maximum (LOX3)
1 | CCC=CCC1C(=O)C=CC1CCCCCCCC(=O)O (stereo not drawn) [12-OPDA, cis-(+)-12-oxophytodienoic acid] | 86.2 ± 3.9 | 5.9 ± 0.1 | 333.2±0.3 | 115.2±1.3
2 | CC/C=C\CC1C(=O)CCC1CC(=O)OC (stereo not shown) [MJ, methyl jasmonate] | 98.0 ± 2.4 | – | 331.7±0.8 | 126.4±3.0
